Measurements taken from US20240148701A1, “WOULD HEALING METHODS” (The University of Sydney, priority 2021, published 2024).

System: Nox 4
Experiment: Immunoblot of hind limb Nox 4 expression
Format: in vivo, mouse
Experimental: Hind limb tissue including the gastrocnemius and adductor muscles were isolated and collected at 14 or 28 days. Tissues were separated and implanted in OCT or placed in cryovials and snap-frozen in liquid nitrogen or were fixed in 10% formalin for 24-hours and then moved to 70% ethanol for storage.
Gastrocnemius samples were stored at −80° C. and then mechanically homogenized in ice-cold lysis buffer containing 150 mmol/L NaCl, 200 mmol/L Tris-HCl (pH 8.0), 1% Triton X-100, 0.5% deoxycholic acid, 0.1% SDS, N-ethylmaleimide (25 mM) and protease inhibitors (cOmplete™ EDTA-free, Roche Diagnostics). 30 μg of protein lysate was denatured and run under reducing conditions on SDS-PAGE (Bolt™ pre-cast gels and reagents, Thermofisher Scientific, Australia) and transferred onto Immobilon polyvinylidene fluoride membrane (Merck Millipore, Australia). […] Membranes were detected using an Odyssey imaging platform (Licor, USA).

SMILES: C[C@H](Cc1ccc2c(c1)OC(C(=O)[O-])(C(=O)[O-])O2)NC[C@H](O)c1cccc(Cl)c1.[Na+].[Na+] [CL 316,243]
- Nox 4 hind limb protein expression (ischemic limb, non-diabetic mice, n=4, P>0.05): 0.88±0.28 fold change from vehicle
- diabetes-induced elevation in Nox4 expression (type 1 diabetic mice, ischemic and non-ischemic limb, back to control levels): markedly reduced
